{
  "source": "patent US5162330A",
  "about": "“Dynemicin C antibiotic, its triacetyl derivative and pharmaceutical composition containing same” (Bristol-Myers Squibb Co., priority 1990, dated 1992)",
  "key": {"[1]": {"test_system": "B16-F10 (murine melanoma) cells", "assay": "In vitro cytotoxicity", "format": "cell-based", "conditions": "Mus musculus, 72 hours, 37° C., neutral red, 540 nm", "experimental": "(§1) Dynemicin C and its triacetate derivative were tested for in vitro cytotoxicity against murine and human tumor cell lines. Dynemicin A and its triacetate derivative were used as reference compounds. B16-F10 (murine melanoma) cells were grown to the logarithmic phase in enriched Eagle minimum essential medium (MEM) supplemented with fetal calf serum (FCS, 10%) and kanamycin (60 mcg/ml) and HCT-116 (human colon carcinoma) cells in Maccoy's 5A medium supplemented with FCS (10%), penicillin (100 μ/ml) and streptomycin (100 mcg/ml), and were harvested and inoculated into wells of the 96- or 24-well tissue culture plate with test materials at concentrations of 1.5×10^4, 1.3×10^4, 1.3×10^4, 2.5×10^4 and 3.0×10^4 cells/ml., respectively. They were incubated at 37° C. in a humidified atmosphere of 5% CO2 and 95% air for 72 hours. The cytotoxic activities were determined colorimetrically at 540 nm after staining viable cells with 0.006% neutral red solution."}, "C. neoformans IAM4514": {"test_system": "C. neoformans IAM4514", "assay": "In vitro antifungal MIC", "format": "cell-based, Cryptococcus neoformans", "experimental": "(§2) The antifungal MICs of dynemicin C and its triacetate were determined by an agar dilution method on yeast morphology agar adjusted to pH7.0 with 1/15M phosphate buffer. A 5 μl aliquot of fungal suspension containing 10^6 cells/ml was inoculated onto the surface of the antibiotic-containing agar plates with a multiinoculator."}, "[2]": {"test_system": "Candida albicans ATCC 38247", "assay": "In vitro antifungal MIC", "format": "cell-based", "experimental": "as §2"}, "[3]": {"test_system": "Cryptococcus neoformans D49", "assay": "In vitro antifungal MIC", "format": "cell-based", "conditions": "pH 7", "experimental": "as §2"}, "[4]": {"test_system": "HCT-116 (human colon carcinoma) cells", "assay": "In vitro cytotoxicity", "format": "cell-based", "conditions": "72 hours, 37° C., neutral red, 540 nm", "experimental": "as §1"}, "E. faecalis A9808": {"test_system": "E. faecalis A9808", "assay": "In vitro antibacterial MIC", "format": "cell-based", "conditions": "Enterococcus faecalis, A9808, 18 h, pH 7", "experimental": "(§3) The minimum inhibitory concentration (MIC) was determined by a two-fold serial tube dilution method using nutrient agar (pH7, Difco containing 10^5 cfu/ml)."}, "P. mirabilis IFO 3849": {"test_system": "P. mirabilis IFO 3849", "assay": "In vitro antibacterial MIC", "format": "cell-based", "conditions": "Proteus mirabilis, IFO3849, 18 h, pH 7", "experimental": "as §3"}, "P. aeruginosa KKA19": {"test_system": "P. aeruginosa KKA19", "assay": "In vitro antibacterial MIC", "format": "cell-based", "conditions": "Pseudomonas aeruginosa, pH 7, nutrient agar pH7, 32° C., 18 hours", "experimental": "as §3"}, "S. aureus smith": {"test_system": "S. aureus smith", "assay": "In vitro antibacterial MIC", "format": "cell-based", "conditions": "Staphylococcus aureus, 18 h, pH 7", "experimental": "as §3"}, "S. marcescens IPM-16": {"test_system": "S. marcescens IPM-16", "assay": "In vitro antibacterial MIC", "format": "cell-based", "conditions": "Serratia marcescens, IPM16, 18 h, pH 7", "experimental": "as §3"}, "S. aureus IPM-24 (MRSA)": {"test_system": "S. aureus IPM-24 (MRSA)", "assay": "In vitro antibacterial MIC", "format": "cell-based", "conditions": "Staphylococcus aureus, 18 h, pH 7", "experimental": "as §3"}, "P. vulgaris IPM-13": {"test_system": "P. vulgaris IPM-13", "assay": "In vitro antibacterial MIC", "format": "cell-based", "conditions": "Proteus vulgaris, IPM13, 18 h, pH 7", "experimental": "as §3"}, "P. aeruginosa A20599": {"test_system": "P. aeruginosa A20599", "assay": "In vitro antibacterial MIC", "format": "cell-based", "conditions": "Pseudomonas aeruginosa, A20599, 18 h, pH 7", "experimental": "as §3"}, "X. maltophilia No. 661": {"test_system": "X. maltophilia No. 661", "assay": "In vitro antibacterial MIC", "format": "cell-based", "conditions": "Stenotrophomonas maltophilia, pH 7, nutrient agar pH7, 32° C., 18 hours", "experimental": "as §3"}, "E. faecium A24817": {"test_system": "E. faecium A24817", "assay": "In vitro antibacterial MIC", "format": "cell-based", "conditions": "Enterococcus faecium, pH 7, nutrient agar pH7, 32° C., 18 hours", "experimental": "as §3"}, "P. cepecia A21213": {"test_system": "P. cepecia A21213", "assay": "In vitro antibacterial MIC", "format": "cell-based", "conditions": "18 h, pH 7", "experimental": "as §3"}, "S. aureus A15036 (MRSA)": {"test_system": "S. aureus A15036 (MRSA)", "assay": "In vitro antibacterial MIC", "format": "cell-based", "conditions": "Staphylococcus aureus, 18 h, pH 7", "experimental": "as §3"}, "S. epidermidis 11-1230": {"test_system": "S. epidermidis 11-1230", "assay": "In vitro antibacterial MIC", "format": "cell-based", "conditions": "Staphylococcus epidermidis, 111230, 18 h, pH 7", "experimental": "as §3"}, "P. rettgeri IPM-14": {"test_system": "P. rettgeri IPM-14", "assay": "In vitro antibacterial MIC", "format": "cell-based", "conditions": "Providencia rettgeri, IPM14, 18 h, pH 7", "experimental": "as §3"}, "M. luteus PCI 1001": {"test_system": "M. luteus PCI 1001", "assay": "In vitro antibacterial MIC", "format": "cell-based", "conditions": "Micrococcus luteus, PCI1001, pH 7, nutrient agar pH7, 32° C., 18 hours", "experimental": "as §3"}, "E. coli 255": {"test_system": "E. coli 255", "assay": "In vitro antibacterial MIC", "format": "cell-based", "conditions": "Escherichia coli, 255, 18 h, pH 7", "experimental": "as §3"}, "P. aeruginosa IPM-8": {"test_system": "P. aeruginosa IPM-8", "assay": "In vitro antibacterial MIC", "format": "cell-based", "conditions": "Pseudomonas aeruginosa, IPM8, 18 h, pH 7", "experimental": "as §3"}, "K. pneumoniae PCI 602": {"test_system": "K. pneumoniae PCI 602", "assay": "In vitro antibacterial MIC", "format": "cell-based", "conditions": "Klebsiella pneumoniae, PCI602, 18 h, pH 7", "experimental": "as §3"}, "M. morganii I510": {"test_system": "M. morganii I510", "assay": "In vitro antibacterial MIC", "format": "cell-based", "conditions": "Morganella morganii, I510, 18 h, pH 7", "experimental": "as §3"}, "P. aeruginosa IPM-9": {"test_system": "P. aeruginosa IPM-9", "assay": "In vitro antibacterial MIC", "format": "cell-based", "conditions": "Pseudomonas aeruginosa, IPM9, 18 h, pH 7", "experimental": "as §3"}, "X. maltophilia GN12873": {"test_system": "X. maltophilia GN12873", "assay": "In vitro antibacterial MIC", "format": "cell-based", "conditions": "Stenotrophomonas maltophilia, pH 7, nutrient agar pH7, 32° C., 18 hours", "experimental": "as §3"}, "P. cepecia No. 651": {"test_system": "P. cepecia No. 651", "assay": "In vitro antibacterial MIC", "format": "cell-based", "conditions": "18 h, pH 7", "experimental": "as §3"}, "P. aeruginosa A9843A": {"test_system": "P. aeruginosa A9843A", "assay": "In vitro antibacterial MIC", "format": "cell-based", "conditions": "Pseudomonas aeruginosa, 18 h, pH 7", "experimental": "as §3"}, "E. cloacae IPM-12": {"test_system": "E. cloacae IPM-12", "assay": "In vitro antibacterial MIC", "format": "cell-based", "conditions": "Enterobacter cloacae, IPM12, 18 h, pH 7", "experimental": "as §3"}, "E. coli Juhl A15119": {"test_system": "E. coli Juhl A15119", "assay": "In vitro antibacterial MIC", "format": "cell-based", "conditions": "Escherichia coli, JUHLA15119, 18 h, pH 7", "experimental": "as §3"}, "S. marcescens IPM-15": {"test_system": "S. marcescens IPM-15", "assay": "In vitro antibacterial MIC", "format": "cell-based", "conditions": "Serratia marcescens, IPM15, 18 h, pH 7", "experimental": "as §3"}},
  "note": "Where two headings read alike, the source gives them in different places.",
  "data": [
    {"compound": "COC1=C(C(=O)O)C(C)C23OC24c2cc(OC(C)=O)c5c(c2NC3C#CC=CC#CC14)C(=O)c1c(OC(C)=O)ccc(OC(C)=O)c1C5=O", "note": "(centres unmarked) [Dynemicin A acetate, reference compound]", "values": [
      {"measurement": "IC50", "setting": "[1]", "result": 0.7, "unit": "ng/mL"}
    ]},
    {"compound": "CC(=O)N1CCN(c2ccc(OCC3COC(Cn4ccnc4)(c4ccc(Cl)cc4Cl)O3)cc2)CC1", "note": "(centres unmarked) [Ketoconazole, reference compound]", "values": [
      {"measurement": "MIC", "setting": "C. neoformans IAM4514; IAM4514, pH 7, Cryptococcus neoformans IAM 4514, yeast morphology agar pH7.0, 28° C., 40 hours, read-out: MIC", "result": 100, "unit": "ng/mL"},
      {"measurement": "MIC", "setting": "[2]; ATCC38247, pH 7, Candida albicans ATCC 38247, amphotericin resistant strain, yeast morphology agar pH7.0, 28° C., 40 hours, read-out: MIC", "result": 6300, "unit": "ng/mL"},
      {"measurement": "MIC", "setting": "[3]; Cryptococcus neoformans D49, yeast morphology agar pH7.0, 28° C., 40 hours, read-out: MIC", "result": 100, "unit": "ng/mL"}
    ]},
    {"compound": "COC1=C(C(=O)O)C(C)C23OC24c2cc(O)c5c(c2NC3C#CC=CC#CC14)C(=O)c1c(O)ccc(O)c1C5=O", "note": "(centres unmarked) [Dynemicin A, reference compound]", "values": [
      {"measurement": "IC50", "setting": "[1]", "result": 5.2, "unit": "ng/mL"},
      {"measurement": "IC50", "setting": "[4]", "result": 3.2, "unit": "ng/mL"},
      {"measurement": "MIC", "setting": "E. faecalis A9808", "result": "< 0.025", "unit": "ng/mL"},
      {"measurement": "MIC", "setting": "P. mirabilis IFO 3849", "result": 1.6, "unit": "ng/mL"},
      {"measurement": "MIC", "setting": "P. aeruginosa KKA19", "result": 3.2, "unit": "ng/mL"},
      {"measurement": "MIC", "setting": "S. aureus smith", "result": "< 0.025", "unit": "ng/mL"},
      {"measurement": "MIC", "setting": "S. marcescens IPM-16", "result": 3.2, "unit": "ng/mL"},
      {"measurement": "MIC", "setting": "S. aureus IPM-24 (MRSA)", "result": "< 0.025", "unit": "ng/mL"},
      {"measurement": "MIC", "setting": "P. vulgaris IPM-13", "result": 0.8, "unit": "ng/mL"},
      {"measurement": "MIC", "setting": "P. aeruginosa A20599", "result": 3.2, "unit": "ng/mL"},
      {"measurement": "MIC", "setting": "X. maltophilia No. 661", "result": 0.8, "unit": "ng/mL"},
      {"measurement": "MIC", "setting": "E. faecium A24817", "result": "< 0.025", "unit": "ng/mL"},
      {"measurement": "MIC", "setting": "P. cepecia A21213", "result": 0.8, "unit": "ng/mL"},
      {"measurement": "MIC", "setting": "S. aureus A15036 (MRSA)", "result": "< 0.025", "unit": "ng/mL"},
      {"measurement": "MIC", "setting": "S. epidermidis 11-1230", "result": "< 0.025", "unit": "ng/mL"},
      {"measurement": "MIC", "setting": "P. rettgeri IPM-14", "result": 0.8, "unit": "ng/mL"},
      {"measurement": "MIC", "setting": "M. luteus PCI 1001", "result": "< 0.025", "unit": "ng/mL"},
      {"measurement": "MIC", "setting": "E. coli 255", "result": 3.2, "unit": "ng/mL"},
      {"measurement": "MIC", "setting": "P. aeruginosa IPM-8", "result": 3.2, "unit": "ng/mL"},
      {"measurement": "MIC", "setting": "K. pneumoniae PCI 602", "result": 3.2, "unit": "ng/mL"},
      {"measurement": "MIC", "setting": "M. morganii I510", "result": 0.8, "unit": "ng/mL"},
      {"measurement": "MIC", "setting": "P. aeruginosa IPM-9", "result": 6.3, "unit": "ng/mL"},
      {"measurement": "MIC", "setting": "X. maltophilia GN12873", "result": 1.6, "unit": "ng/mL"},
      {"measurement": "MIC", "setting": "P. cepecia No. 651", "result": 0.8, "unit": "ng/mL"},
      {"measurement": "MIC", "setting": "P. aeruginosa A9843A", "result": 1.6, "unit": "ng/mL"},
      {"measurement": "MIC", "setting": "E. cloacae IPM-12", "result": 1.6, "unit": "ng/mL"},
      {"measurement": "MIC", "setting": "E. coli Juhl A15119", "result": 3.2, "unit": "ng/mL"},
      {"measurement": "MIC", "setting": "S. marcescens IPM-15", "result": 3.2, "unit": "ng/mL"},
      {"measurement": "MIC", "setting": "C. neoformans IAM4514; Cryptococcus neoformans, IAM4514, 40 h, pH 7", "result": 200, "unit": "ng/mL"},
      {"measurement": "MIC", "setting": "[2]; Candida albicans, ATCC38247, 40 h, pH 7", "result": "< 3.1", "unit": "ng/mL"},
      {"measurement": "MIC", "setting": "[3]; Cryptococcus neoformans, D49, 40 h", "result": 200, "unit": "ng/mL"}
    ]}
  ]
}
